From US20100120740A1, “PRODRUGS OF FUSED HETEROCYCLIC INHIBITORS OF D-AMINO ACID OXIDASE” (SEPRACOR INC., priority 2008, published 2010)

Assay: Rate of hydrolysis of test compounds to 4H-furo[3,2-b]pyrrole-5-carboxylic acid in pH 7.4 and 2.0 aqueous solutions
Assay type: physicochemical
Details: HPLC; for Hydrolysis rate at pH 7.4: 0.05 M sodium phosphate buffer pH 7.4, 0.013 mg/mL, over 6 hours; for Hydrolysis rate at pH 2.0: water adjusted with phosphoric acid to pH 2.0, 0.013 mg/mL, over 2 hours
Description: 10 mM DMSO solutions of test compounds were diluted with a 0.05 M sodium phosphate buffer (pH 7.4) or water adjusted with phosphoric acid to pH 2.0, with a final concentration of 0.013 mg/mL. Samples were analyzed over either 2 or 6 hours, by HPLC. The amount of test compound and the corresponding acid were determined. The rate of conversion of the test compound was calculated based on formation of the corresponding acid and loss of parent.
The rate of hydrolysis of test compounds to 4H-furo[3,2-b]pyrrole-5-carboxylic acid was evaluated in pH 7.4 aqueous solution over 6 hours, and in pH 2.0 aqueous solution over 2 hours, according to General Procedure 15.

Hydrolysis rate at pH 7.4 | Hydrolysis rate at pH 2.0 | Compound
No hydrolysis | No hydrolysis | O=C(OCC(=O)N1CCOCC1)c1cc2occc2[nH]1 [Compound 21a, 2-morpholino-2-oxoethyl 4H-furo[3,2-b]pyrrole-5-carboxylate]
No hydrolysis | No hydrolysis | O=C(OCC(=O)N1CCC1)c1cc2occc2[nH]1 [Compound 22a, 2-(azetidin-1-yl)-2-oxoethyl 4H-furo[3,2-b]pyrrole-5-carboxylate]
3.46%/hr | – | CC(OC(=O)c1cc2occc2[nH]1)OC(=O)C(C)C (centres unmarked) [Compound 31b, 1-(isobutyryloxy)ethyl 4H-furo[3,2-b]pyrrole-5-carboxylate]
0.21%/hr | – | CC(OC(=O)OC1CCCCC1)OC(=O)c1cc2occc2[nH]1 (centres unmarked) [Compound 36b, 1-(cyclohexyloxycarbonyloxy)ethyl 4H-furo[3,2-b]pyrrole-5-carboxylate]

The next lines start with the compound.

Compound | Hydrolysis rate at pH 7.4 | Hydrolysis rate at pH 2.0
O=C(OCC1CCCO1)c1cc2occc2[nH]1 (centres unmarked) [Compound 11, (tetrahydrofuran-2-yl)methyl 4H-furo[3,2-b]pyrrole-5-carboxylate] | No hydrolysis | No hydrolysis
Cc1oc(=O)oc1COC(=O)c1cc2occc2[nH]1 [Compound 12, (5-methyl-2-oxo-1,3-dioxol-4-yl)methyl 4H-furo[3,2-b]pyrrole-5-carboxylate] | 0.20%/hr | No hydrolysis
CN(C)C(=O)COC(=O)c1cc2occc2[nH]1 [Compound 20, 2-(dimethylamino)-2-oxoethyl 4H-furo[3,2-b]pyrrole-5-carboxylate] | No hydrolysis | No hydrolysis
O=C(OCCN1CCOCC1)c1cc2occc2[nH]1 [Compound 24, 2-morpholinoethyl 4H-furo[3,2-b]pyrrole-5-carboxylate] | No hydrolysis | No hydrolysis
